Data as given in ChEMBL document CHEMBL1201862, “PubChem BioAssay data set” (2004).
The source made the active and inactive calls.

Columns and labels:
[1] = molecular target: Aurora kinase A (Homo sapiens, UniProt O14965); format: functional;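 note: value from the Navigating the Kinome kinase panel profiling, panel entry STK6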
[2] = molecular target: Aurora kinase B (Homo sapiens, UniProt Q96GD4); format: functional
[3] = molecular target: 72 kDa type IV collagenase (Homo sapiens, UniProt P08253); experiment: Dose Response validation of uHTS RPN11 inhibitor hits using a MMP-2 Fluorescence assay.; format: functional
[4] = molecular target: T1, Probable nicotinate-nucleotide adenylyltransferase (Staphylococcus aureus (strain N315), UniProt P65502); format: functional, Staphylococcus aureus subsp. aureus N315; settings: read-out: IC50_Mean;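 for IC50 Mean: confirmatory dose-response retesting of NadD inhibitor hits first found in an ultra-high-throughput screen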
[5] = molecular target: 26S proteasome non-ATPase regulatory subunit 14 (Homo sapiens, UniProt O00487); experiment: inhibition of proteasome subunit RPN11 – biochemical, fluorescence polarization, uHTS hits, confirmation (AID 602368); format: functional
[6] = molecular target: T1, Probable nicotinate-nucleotide adenylyltransferase; format: functional, Staphylococcus aureus subsp. aureus N315
[7] = molecular target: Prothrombin (Bos taurus, UniProt P00735); experiment: thrombin protease inhibitors – biochemical, fluorescence polarization, uHTS hits, dose response (AID 602369); format: functional

Aurora kinase B, sequence (Q96GD4 whole entry): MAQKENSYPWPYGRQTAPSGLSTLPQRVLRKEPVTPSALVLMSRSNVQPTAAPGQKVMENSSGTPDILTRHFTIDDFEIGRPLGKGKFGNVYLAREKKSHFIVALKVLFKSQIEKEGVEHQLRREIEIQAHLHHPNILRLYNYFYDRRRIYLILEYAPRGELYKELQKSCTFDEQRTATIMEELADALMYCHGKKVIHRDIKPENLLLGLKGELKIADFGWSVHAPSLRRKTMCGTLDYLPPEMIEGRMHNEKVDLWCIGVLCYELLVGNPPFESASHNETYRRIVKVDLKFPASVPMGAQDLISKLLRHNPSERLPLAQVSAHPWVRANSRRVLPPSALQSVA
Aurora kinase A, sequence (O14965 whole entry): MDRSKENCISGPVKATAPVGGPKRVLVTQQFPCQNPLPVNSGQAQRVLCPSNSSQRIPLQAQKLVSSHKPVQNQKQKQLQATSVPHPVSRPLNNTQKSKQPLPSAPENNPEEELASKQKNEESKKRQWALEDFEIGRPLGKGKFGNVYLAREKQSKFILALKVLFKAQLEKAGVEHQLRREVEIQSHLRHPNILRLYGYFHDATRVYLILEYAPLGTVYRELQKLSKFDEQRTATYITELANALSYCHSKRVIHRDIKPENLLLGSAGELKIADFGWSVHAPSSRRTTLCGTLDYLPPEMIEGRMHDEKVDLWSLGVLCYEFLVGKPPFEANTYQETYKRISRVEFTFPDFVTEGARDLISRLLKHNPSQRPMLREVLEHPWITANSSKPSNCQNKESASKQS
72 kDa type IV collagenase, sequence (P08253 whole entry): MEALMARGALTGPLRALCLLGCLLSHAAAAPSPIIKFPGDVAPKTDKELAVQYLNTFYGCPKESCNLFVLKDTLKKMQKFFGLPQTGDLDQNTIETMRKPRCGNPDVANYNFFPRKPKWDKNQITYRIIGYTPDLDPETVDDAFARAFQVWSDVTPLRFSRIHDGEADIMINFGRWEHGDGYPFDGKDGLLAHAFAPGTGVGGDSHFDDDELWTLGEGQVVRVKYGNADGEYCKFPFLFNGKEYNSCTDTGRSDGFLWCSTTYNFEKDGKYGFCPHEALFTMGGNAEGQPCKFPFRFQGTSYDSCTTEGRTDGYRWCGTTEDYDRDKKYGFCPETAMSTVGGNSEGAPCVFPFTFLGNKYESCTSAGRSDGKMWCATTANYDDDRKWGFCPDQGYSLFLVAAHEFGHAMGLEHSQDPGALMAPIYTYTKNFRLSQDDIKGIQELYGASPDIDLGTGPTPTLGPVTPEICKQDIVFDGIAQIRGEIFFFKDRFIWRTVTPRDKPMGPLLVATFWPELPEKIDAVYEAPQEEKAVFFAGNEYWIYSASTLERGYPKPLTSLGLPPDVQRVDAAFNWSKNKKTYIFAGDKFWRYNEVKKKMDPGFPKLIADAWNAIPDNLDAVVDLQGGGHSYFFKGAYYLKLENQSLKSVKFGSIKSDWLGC
26S proteasome non-ATPase regulatory subunit 14, sequence (O00487 whole entry): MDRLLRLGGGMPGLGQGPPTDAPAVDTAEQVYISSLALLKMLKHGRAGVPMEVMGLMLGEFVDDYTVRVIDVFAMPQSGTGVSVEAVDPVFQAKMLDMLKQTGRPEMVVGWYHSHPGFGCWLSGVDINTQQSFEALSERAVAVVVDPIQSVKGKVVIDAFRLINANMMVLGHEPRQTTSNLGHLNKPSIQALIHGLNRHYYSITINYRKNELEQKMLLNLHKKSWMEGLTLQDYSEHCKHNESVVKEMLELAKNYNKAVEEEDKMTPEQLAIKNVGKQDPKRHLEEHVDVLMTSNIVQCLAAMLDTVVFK

Ki [1] | Ki [2] | IC50 [3] | IC50 [4] | IC50 [5] | IC50 [6] | IC50 [7] | Structure (SMILES)
0.1 µM (active) | 0.00126 µM (active) | – | – | – | – | – | Nc1ncnc2sc3c(c12)-c1ccc(NC(=O)Nc2cccc(C(F)(F)F)c2)cc1CC3
– | – | > 100 µM (inactive) | 31.3 µM (active) | 36.2 µM (active) | 14.2 µM (active) | 43.3 µM (active) | Cc1ccccc1CN1C(=O)C(C)Sc2ccc(-c3ccco3)cc21 (configuration not stated)
